In patent US9642859B2, “Use of capsazepine and analogs thereof to treat cancer” (THE BOARD OF REGENTS OF THE UNIVERSITY OF TEXAS SYSTEM, priority 2012, dated 2017):

Tests used:
HSC3 = assay: Additional cell proliferation assay, HSC3; assay type: cell-based, human; settings: HSC3, 24 hour treatment
From the text: Observed reductions in cell proliferation in these additional in vitro studies are as follows: SCC4, 40%; HSC3, 50%; SCC25, 80%; Cal27, 15%; MDA231, 56%; and LnCap, 37%.

OSCC cell lines = assay: ROS assays by flow cytometry (DCF-DA); assay type: cell-based, human; settings: 30 μM capsazepine, 1 h
Procedure: FIGS. 1I-1 to 1I-3. Reactive oxygen species (ROS) assays. The level of ROS in OSCC cell lines was examined by flow cytometry using 2,7-dichlorodihydrofluorescein diacetate (DCFH-DA; Sigma). Approximately 3×10^5 cells were plated in 12-well plates. To detect ROS, cells were incubated for 30 min at 37° C. with DCF-DA, washed and then treated for 1 h with 30 μM capsazepine (grey, thick line), 150 μM capsaicin (grey, thin line), 30 μM capsazepine+150 μM capsaicin (black line), or vehicle control (dotted line). The cells were harvested, washed twice, and analyzed by flow cytometry.
FIGS. 1I-4(a)-(b) to 1I-6(a)-(b). Induction of ROS in OSCC cell lines. (a). ROS induction in OSCC cell lines following 1 h treatment with 30 μM CPZ (black line) compared to vehicle control. (b). ROS induction in OSCC cell lines following 1 h treatment with 30 μM CPZ is reversed by NAC co-treatment (black line) as indicated in the shift in their peaks to the left.
ROS levels in OSCC cell lines were examined by flow cytometry using 2,7-dichlorodihydrofluorescein diacetate (DCF-DA; Sigma-Aldrich, St. Louis, Mo.). Cells (3×10^5) were plated in 12-well plates and incubated for 30 min with DCF-DA at 37° C. then treated with 30 μM capsazepine using phenol free media with and without 10 mM NAC. Treated cells were incubated for 1 h at 37° C., harvested, washed twice, and analyzed by FACS.

[1] = Liver and kidney function tests of tumor bearing mice; assay type: in vivo; settings: 40 μg CPZ intra-tumoral every other day over 14 days
Procedure: FIG. 14. Liver and kidney function tests of tumor bearing mice following two week treatment with either vehicle control (Control) or 40 μg CPZ in 40 μl Veh medium (1 μg/μl) injected directly into tumor every other day over 14 days (CPZ).
Treatments. CPZ (5 mg) was diluted in 250 μl of 100% DMSO to yield a final concentration of 20 μg/μl of stock solution. Stock solution (100 m) was subsequently diluted in 7% DMSO in sterile saline generating a final concentration of 1 μg/μl. A total of 40 μg in 40 μl was injected intra-tumorally. Control xenografts were injected intra-tumorally with 40 μl of vehicle control (7% DMSO). Mice were monitored daily for tumor growth, cachexia, and weight loss. Tumor volumes and body weight were recorded every other day. Tumor volumes were calculated by the formula: (4π/3)×(w/2)2×(l/2), where w=width and l=length. Measurements were made using a digital caliper. […]
At the conclusion of the experiment, serum was collected for liver and kidney function analysis. […] Tumors were analyzed histologically using H&E (hematoxylin and eosin) and TUNEL (terminal deoxyribonucleotidyl transferase-mediated dUTP nick end labeling) staining for detection of DNA fragmentation associated with apoptosis, and apoptotic figures were quantified. […]

OSCC xenografts = assay: TUNEL staining of OSCC xenografts; assay type: in vivo, mice; settings: CPZ treated xenografts, p<0.001
Procedure: FIG. 15A-15C. TUNEL staining of OSCC xenografts. FIG. 15A: Representative photomicrograph of TUNEL stain of HSC3 xenograft (10×) treated with vehicle control. […] FIG. 15B: Number of apoptotic figures per field in vehicle and 40 μg capsazepine (CPZ) treated SCC4 xenografts. FIG. 15C: Number of apoptotic figures per field in vehicle and CPZ (20 m) treated SCC25 xenografts. Student's T-Test of the average of six fields with n=3; ***p<0.001.
At the conclusion of the experiment, serum was collected for liver and kidney function analysis. […] Tumors were analyzed histologically using H&E (hematoxylin and eosin) and TUNEL (terminal deoxyribonucleotidyl transferase-mediated dUTP nick end labeling) staining for detection of DNA fragmentation associated with apoptosis, and apoptotic figures were quantified. [FIGS. 15-1 to 15-3] […] Therefore, CPZ empirically has shown promise for being a well-tolerated treatment for OSCC.

SMILES: Oc1cc2c(cc1O)CN(C(=S)NCCc1ccc(Cl)cc1)CCC2 [CPZ, 2-[2-(4-chlorphenyl)ethylamino-thiocarbonyl]-7,8-dihydroxy-2,3,4,5-tetrahydro-1H-2-benzazepine]
- reduction in cell proliferation (HSC3): 50%
- level of ROS (OSCC cell lines): increase in ROS
- liver and kidney function [1]: No negative effects on liver or kidney function were detected
- apoptotic figures in treated tumors (TUNEL) (OSCC xenografts): significant increase in apoptotic figures
